In assay [1] the target is T1, α4β1 integrin receptor (Homo sapiens, UniProt P05556+P13612).
T1 construct: Ramos Cell Adhesion Assay (α4β1 Mediated Adhesion/VCAM-1); endogenous in cells; host or cells: Ramos cells
In words: Ramos Cell Adhesion Assay (α4β1 Mediated Adhesion/VCAM-1). It is filed as cell-based. The procedure:
Ramos Cell Adhesion Assay (α4β1 Mediated Adhesion/VCAM-1)
(§1) Immulon 96 well plates (Dynex) were coated with 100 μL recombinant hVCAM-1 at 4.0 μg/mL in 0.05 M NaCO3 buffer pH 9.0 overnight at 4° C. (R&D Systems). Plates were washed 3 times in PBS with 1% BSA and blocked for 1 h @ room temperature in this buffer. PBS was removed and compounds to be tested (50 μL) were added at 2× concentration. Ramos cells, (50 μL at 2×10^6/mL) labeled with 5 μM Calcein AM (Molecular Probes) for 1 h at 37° C., were added to each well and allowed to adhere for 1 h at room temperature. Plates were washed 3× in PBS+1% BSA and cells were lysed for 15 minutes in 100 μL of 1 M Tris pH 8.0 with 1% SDS. The plate was read at 485 nm excitation and 530 nm emission.

The target of assay [2] is T2, human α4β7 (Homo sapiens, UniProt P13612+P26010).
T2 construct: expressed in transfected cells
T2 sequence (P13612 34-1032): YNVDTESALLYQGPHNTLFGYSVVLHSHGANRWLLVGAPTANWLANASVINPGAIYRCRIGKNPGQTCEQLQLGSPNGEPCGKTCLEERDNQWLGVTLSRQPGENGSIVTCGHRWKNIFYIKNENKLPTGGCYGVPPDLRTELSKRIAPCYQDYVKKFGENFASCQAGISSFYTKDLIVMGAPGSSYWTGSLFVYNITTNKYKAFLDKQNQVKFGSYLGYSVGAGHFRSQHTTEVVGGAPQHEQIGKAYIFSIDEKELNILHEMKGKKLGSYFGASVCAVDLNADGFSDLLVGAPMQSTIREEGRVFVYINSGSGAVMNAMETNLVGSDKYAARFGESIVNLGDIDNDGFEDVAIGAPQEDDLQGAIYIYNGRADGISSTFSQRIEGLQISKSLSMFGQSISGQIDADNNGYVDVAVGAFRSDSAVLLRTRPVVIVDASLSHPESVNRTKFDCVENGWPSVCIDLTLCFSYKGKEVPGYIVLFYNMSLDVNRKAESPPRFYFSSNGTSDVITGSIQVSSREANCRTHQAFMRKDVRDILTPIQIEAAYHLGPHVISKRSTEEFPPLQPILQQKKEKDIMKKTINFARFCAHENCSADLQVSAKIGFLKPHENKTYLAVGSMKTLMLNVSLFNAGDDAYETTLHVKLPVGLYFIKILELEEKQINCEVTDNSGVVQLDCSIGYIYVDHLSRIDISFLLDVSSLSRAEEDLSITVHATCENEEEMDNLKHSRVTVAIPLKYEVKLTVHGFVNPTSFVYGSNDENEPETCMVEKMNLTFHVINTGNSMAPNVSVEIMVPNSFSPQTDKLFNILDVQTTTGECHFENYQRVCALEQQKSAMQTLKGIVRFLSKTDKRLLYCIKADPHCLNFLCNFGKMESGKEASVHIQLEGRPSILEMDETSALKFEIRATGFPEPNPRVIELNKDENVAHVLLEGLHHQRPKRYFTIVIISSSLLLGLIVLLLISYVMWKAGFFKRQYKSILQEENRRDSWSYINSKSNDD
T2 sequence (P26010 20-798): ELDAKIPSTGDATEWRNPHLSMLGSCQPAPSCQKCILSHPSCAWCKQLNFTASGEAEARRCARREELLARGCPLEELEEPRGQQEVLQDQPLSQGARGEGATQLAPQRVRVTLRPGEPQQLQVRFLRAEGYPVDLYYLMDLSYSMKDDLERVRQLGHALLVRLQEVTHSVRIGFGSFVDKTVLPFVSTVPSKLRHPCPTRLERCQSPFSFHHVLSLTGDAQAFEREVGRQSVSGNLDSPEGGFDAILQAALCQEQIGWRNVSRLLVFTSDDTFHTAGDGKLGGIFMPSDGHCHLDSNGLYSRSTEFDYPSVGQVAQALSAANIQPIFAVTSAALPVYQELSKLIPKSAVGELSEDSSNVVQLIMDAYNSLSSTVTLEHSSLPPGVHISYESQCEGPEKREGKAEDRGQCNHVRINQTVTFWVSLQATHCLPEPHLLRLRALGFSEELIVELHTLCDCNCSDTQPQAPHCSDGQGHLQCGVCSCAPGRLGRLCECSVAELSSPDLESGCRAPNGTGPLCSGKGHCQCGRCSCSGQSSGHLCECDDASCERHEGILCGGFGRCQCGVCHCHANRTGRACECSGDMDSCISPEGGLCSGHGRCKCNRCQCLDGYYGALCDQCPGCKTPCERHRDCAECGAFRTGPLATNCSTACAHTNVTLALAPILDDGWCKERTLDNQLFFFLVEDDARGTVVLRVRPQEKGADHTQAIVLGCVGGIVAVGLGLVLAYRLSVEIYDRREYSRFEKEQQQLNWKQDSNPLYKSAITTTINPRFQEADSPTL
In words: α4β7-K562 Cell Adhesion Assay (α4β7 Mediated Adhesion/VCAM-1). Format: cell-based. The note with it: for IC50: μM. The procedure: α4β7-K562 Cell Adhesion Assay (α4β7 Mediated Adhesion/VCAM-1)
as §1, with “A stable cell line of K562 cells expressing human α4β7,” for “Ramos cells,”

Where [3] appears, read: Table I, racemic mixtures and resolved (S,S) and (R,S) diastereomers, read-out: Antagonist IC50 Activity α4β1.
Where [4] appears, read: Table III, read-out: Inhibition of Binding of Ramos Cells to Immobilized VCAM-1 IC50.
Setting [5] is: Table I, racemic mixtures and resolved (S,S) and (R,S) diastereomers, read-out: Antagonist IC50 Activity α4β7.
Setting [6] is: Table IV, read-out: Inhibition of Binding of K562 Cells to Immobilized VCAM-1 IC50.

pIC50: −log10 of the molar value. Where two headings read alike, the source gives them in different places.

In general, pIC50 refers to the IC50 on a negative log10 scale, so that one unit is a factor of ten. What is called IC50 is the midpoint of a concentration-inhibition curve.

T1 sequence (P05556 21-798, one chain of several): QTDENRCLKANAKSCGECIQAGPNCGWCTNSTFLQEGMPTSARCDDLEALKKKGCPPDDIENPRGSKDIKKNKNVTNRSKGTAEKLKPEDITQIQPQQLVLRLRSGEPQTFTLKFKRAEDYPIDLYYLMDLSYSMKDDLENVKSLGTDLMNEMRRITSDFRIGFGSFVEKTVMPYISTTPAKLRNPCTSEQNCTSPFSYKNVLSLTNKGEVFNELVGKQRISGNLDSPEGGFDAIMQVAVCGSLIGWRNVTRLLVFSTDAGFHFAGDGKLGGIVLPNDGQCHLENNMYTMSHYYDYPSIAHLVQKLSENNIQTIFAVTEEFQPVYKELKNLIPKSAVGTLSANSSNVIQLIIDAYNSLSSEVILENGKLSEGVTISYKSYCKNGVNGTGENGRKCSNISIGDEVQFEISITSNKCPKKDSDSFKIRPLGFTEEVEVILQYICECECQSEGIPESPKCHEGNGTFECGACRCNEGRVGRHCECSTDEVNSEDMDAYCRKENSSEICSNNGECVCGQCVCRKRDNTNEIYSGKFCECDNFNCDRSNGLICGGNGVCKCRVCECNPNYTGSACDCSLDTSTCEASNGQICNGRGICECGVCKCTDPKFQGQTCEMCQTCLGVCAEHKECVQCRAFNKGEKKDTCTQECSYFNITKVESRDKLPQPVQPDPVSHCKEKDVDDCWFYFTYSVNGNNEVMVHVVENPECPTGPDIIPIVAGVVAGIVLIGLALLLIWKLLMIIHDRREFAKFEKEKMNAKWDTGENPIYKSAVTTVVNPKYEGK

In the case of `O=C(Nc1ccc(C[C@H](NC(=O)[C@H]2C3CCC(C3)N2S(=O)(=O)c2ccccc2)C(=O)O)cc1)c1c(F)cccc1F` (stereo partly drawn) [Cpd 5b, 4-[(2,6-difluorobenzoyl)amino]-N-[[(3R)-2-(phenylsulfonyl)-2-azabicyclo[2.2.1]hept-3-yl]carbonyl]-L-phenylalanine], the values for the pIC50 in assay [1] (setting [3]), in assay [1] (setting [4]) and in assay [2] (setting [5]) were 6.40, 6.40 and 5.47, respectively.

Take `O=C(Nc1ccc(C[C@H](NC(=O)[C@@H]2C3CCC(CC3)N2S(=O)(=O)c2ccccc2)C(=O)O)cc1)c1c(Cl)cccc1Cl` [Cpd 6a, 4-[(2,6-dichlorobenzoyl)amino]-N-[[(3S)-2-(phenylsulfonyl)-2-azabicyclo[2.2.2]oct-3-yl]carbonyl]-L-phenylalanine]: the pIC50 is 7.64 in assay [1] (setting [3]), 7.68 in assay [1] (setting [4]) and 6.66 in assay [2] (setting [5]).

As for `O=C(Nc1ccc(C[C@H](NC(=O)[C@H]2C3CCC(CC3)N2S(=O)(=O)c2ccccc2)C(=O)O)cc1)c1c(Cl)cccc1Cl` [Cpd 6b, 4-[(2,6-dichlorobenzoyl)amino]-N-[[(3R)-2-(phenylsulfonyl)-2-azabicyclo[2.2.2]oct-3-yl]carbonyl]-L-phenylalanine], the pIC50 in assay [1] (setting [3]) was 6.65; in assay [1] (setting [4]) it was 6.65; in assay [2] (setting [5]), 6.38.

Take `COc1cccc(OC)c1-c1ccc(C[C@H](NC(=O)[C@@H]2C3CCC(CC3)N2S(=O)(=O)c2ccccc2)C(=O)O)cc1` [Cpd 8, 4-(2,6-dimethoxyphenyl)-N-[[(3S)-2-(phenylsulfonyl)-2-azabicyclo[2.2.2]oct-3-yl]carbonyl]-L-phenylalanine]: the pIC50 is 7.09 in assay [1] (setting [4]) and 6.46 in assay [2] (setting [6]).

On to `Cc1ccc(S(=O)(=O)N2C3CCC(CC3)C2C(=O)N[C@@H](Cc2ccc(NC(=O)c3ccccc3C)cc2)C(=O)O)cc1` (stereo partly drawn) [Cpd 9, 4-[(2-methylbenzoyl)amino]-N-[[2-[(4-methylphenyl)sulfonyl]-2-azabicyclo[2.2.2]oct-3-yl]carbonyl]-(α^1S)-phenylalanine], for which the pIC50 in assay [1] (setting [4]) is 6.57. Besides, the IC50 in assay [2] (setting [6]) was more than 5 µM.

In the case of `Cc1ccc(S(=O)(=O)N2C3CCC(CC3)C2C(=O)N[C@@H](Cc2ccc(NC(=O)c3ccccc3Cl)cc2)C(=O)O)cc1` (stereo partly drawn) [Cpd 10, 4-[(2-chlorobenzoyl)amino]-N-[[2-[(4-methylphenyl)sulfonyl]-2-azabicyclo[2.2.2]oct-3-yl]carbonyl]-L-phenylalanine], the pIC50 in assay [1] (setting [4]) was 6.84; in assay [2] (setting [6]), 5.36.

For `Cc1ccc(S(=O)(=O)N2C3CCC(CC3)C2C(=O)N[C@@H](Cc2ccc(NC(=O)c3c(F)cccc3F)cc2)C(=O)O)cc1` (stereo partly drawn) [Cpd 11, 4-[(2,6-difluorobenzoyl)amino]-N-[[2-[(4-methylphenyl)sulfonyl]-2-azabicyclo[2.2.2]oct-3-yl]carbonyl]-L-phenylalanine], the pIC50 in assay [1] (setting [4]) is 6.75; in assay [2] (setting [6]), 5.83.

Turning to `Cc1ccc(S(=O)(=O)N2C3CCC(CC3)C2C(=O)N[C@@H](Cc2ccc(NC(=O)c3ccccc3C(F)(F)F)cc2)C(=O)O)cc1` (stereo partly drawn) [Cpd 12, 4-[[2-(trifluoromethyl)benzoyl]amino]-N-[[2-[(4-methylphenyl)sulfonyl]-2-azabicyclo[2.2.2]oct-3-yl]carbonyl]-L-phenylalanine], the pIC50 in assay [1] (setting [4]) is 6.98; in assay [2] (setting [6]) it was 5.97.

Turning to `Cc1ccc(S(=O)(=O)N2C3CCC(CC3)C2C(=O)N[C@@H](Cc2ccc(NC(=O)c3ccccc3OC(F)(F)F)cc2)C(=O)O)cc1` (stereo partly shown) [Cpd 13], in assay [1] (setting [4]), the pIC50 is 6.92. Further, the IC50 in assay [2] (setting [6]) was more than 10 µM.

In the case of `Cc1ccc(S(=O)(=O)N2C3CCC(CC3)C2C(=O)N[C@@H](Cc2ccc(NC(=O)c3ccccc3Br)cc2)C(=O)O)cc1` (stereo partly drawn) [Cpd 14, 4-[(2-bromobenzoyl)amino]-N-[[2-[(4-methylphenyl)sulfonyl]-2-azabicyclo[2.2.2]oct-3-yl]carbonyl]-L-phenylalanine], the pIC50 in assay [1] (setting [4]) is 6.80; in assay [2] (setting [6]) it was 6.04.

As for `O=C(Nc1ccc(C[C@H](NC(=O)C2C3CCC(CC3)N2S(=O)(=O)c2ccccc2)C(=O)O)cc1)c1c(F)cccc1F` (stereo partly drawn) [Cpd 15, 4-[(2,6-difluorobenzoyl)amino]-N-[[2-(phenylsulfonyl)-2-azabicyclo[2.2.2]oct-3-yl]carbonyl]-L-phenylalanine], the values for the pIC50 in assay [1] (setting [4]) and in assay [2] (setting [6]) were 7.17 and 5.86, respectively.

With `O=C(Nc1ccc(C[C@H](NC(=O)[C@@H]2C3CCC(C3)N2S(=O)(=O)c2ccccc2)C(=O)O)cc1)c1c(Cl)cccc1Cl` (stereo partly drawn) [Cpd 16a, 4-[(2,6-dichlorobenzoyl)amino]-N-[[(3S)-2-(phenylsulfonyl)-2-azabicyclo[2.2.1]hept-3-yl]carbonyl]-L-phenylalanine], the pIC50 is 6.82 in assay [1] (setting [3]), 6.82 in assay [1] (setting [4]) and 5.68 in assay [2] (setting [5]).

As for `O=C(Nc1ccc(C[C@H](NC(=O)[C@H]2C3CCC(C3)N2S(=O)(=O)c2ccccc2)C(=O)O)cc1)c1c(Cl)cccc1Cl` (stereo partly drawn) [Cpd 16b, 4-[(2,6-dichlorobenzoyl)amino]-N-[[(3R)-2-(phenylsulfonyl)-2-azabicyclo[2.2.1]hept-3-yl]carbonyl]-L-phenylalanine], the pIC50 in assay [1] (setting [3]) was 6.62; in assay [1] (setting [4]), 6.62; in assay [2] (setting [5]) it was 6.41.

On to `COc1cccc(OC)c1-c1ccc(C[C@H](NC(=O)[C@H]2C3CCC(CC3)N2S(=O)(=O)c2ccc(C)cc2)C(=O)O)cc1` [Cpd 18a, 4-(2,6-dimethoxyphenyl)-N-[[(3R)-2-[(4-methylphenyl)sulfonyl]-2-azabicyclo[2.2.2]oct-3-yl]carbonyl]-L-phenylalanine], for which the pIC50 in assay [1] (setting [3]) is 6.07; in assay [1] (setting [4]) it was 6.07; in assay [2] (setting [5]), 5.05.

For the origin of these results see patent US6960597B2, “Aza-bridged-bicyclic amino acid derivatives as α4 integrin antagonists” (Orth-McNeil Pharmaceutical, Inc., priority 2000, dated 2005).
